# From patent US8536160B2, “Azaheterocyclyl derivatives of androstanes and androstenes as medicaments for cardiovascular disorders” (priority 2006, dated 2013)
# Counter-ions that a name gives are not always drawn. Like-named read-outs stand apart in the source and are kept apart here.
# Tests used:
# [1] = biological target: Dog Kidney Na+, K+-ATPase (Canis lupus familiaris, UniProt P50997); test: Inhibition of the enzymatic activity of purified Na+,K+-ATPase (hydrolysis of 32P-ATP); type: biochemical
# anesthetized guinea-pig = test: Inotropic effect and lethal dose, slow intravenous infusion in anesthetized guinea-pig; type: in vivo; design: Maximum dose infused: unit not given here; conditions: for Emax / ED80 / ED (max): Cavia porcellus, iv, 1.5 h; for Emax: maximum increase in contractile force, read-out: Emax % increase in +dP/dTmax; for ED80: read-out: ED80 (inotropic potency, dose increasing +dP/dTmax by 80%); for ED (max): read-out: EDmax (dose inducing maximum positive inotropic effect); for % decrease from Emax after 20 min from the end of the infusion: duration of the inotropic effect; for Maximum dose infused: maximum dose infused in the survived animals
# [2] = dog kidney enzyme, hydrolysis of 32P-ATP in presence and absence of compound, read-out: Na+, K+-ATPase Inhibition IC50
# [3] = read-out: Na+, K+-ATPase Inhibition IC50
# [4] = slow i.v. infusion over 90 minutes, anesthetized guinea-pig
# [5] = slow i.v. infusion over 90 minutes
molecule,measurement,setting,value
"COCC1CC2C3CCC(=O)C3(C)CCC2C2(C)CCC(=NOC3CCNC3)CC12 (mixture of isomers) [I-as, (E,Z) 3-[3-(R)-Pyrrolidinyl]oxyimino-6α-methoxymethylandrostane-17-one hydrochloride]",IC50,[1]; [2],0.32 µM
"C[C@@H]1CC2CC(=NO[C@@H]3CCNC3)CC[C@]2(C)[C@H]2CC[C@]3(C)C(=O)CC[C@H]3[C@H]12 (stereo partly drawn) [I-ck, (E,Z) 3-[3′-(R)-Pyrrolidinyl]oxyimino-7α-methylandrostane-17-one hydrochloride]",IC50,[1]; [3],0.21 µM
"CC12CCC3C(CC(=O)C4CC(=NOCC5CCCN5)CCC43C)C1CCC2=O (mixture of isomers) [I-ai, hydrochloride]",IC50,"[1]; Na+, K+-ATPase Inhibition IC50",11 µM
"CN1CCC(ON=C2CCC3(C)C(C2)C(=O)CC2C4CCC(=O)C4(C)CCC23)C1 (single isomer, unassigned) [I-ak, hydrochloride]",IC50,"[1]; Na+, K+-ATPase Inhibition IC50",41 µM
"CC1CC2CC(=NOC3CCNC3)CCC2(C)C2CCC3(C)C(=O)CCC3C12 [I-cm, (E) 3-[3′-(R)-Pyrrolidinyl]oxyimino-7β-methylandrostane-17-one hydrochloride]",IC50,"[1]; Na+, K+-ATPase Inhibition IC50",0.14 µM
"C[C@H]1C[C@@H]2[C@H](CC[C@]3(C)C(=O)CC[C@@H]23)[C@@]2(C)CC/C(=N\O[C@@H]3CCNC3)CC12 (stereo partly drawn) [I-aw, (E) 3-[3-(R)-Pyrrolidinyl]oxyimino-6α-methylandrostane-17-one fumarate]",IC50,"[1]; Na+, K+-ATPase Inhibition IC50",0.34 µM
"CO/N=C1\C[C@H]2[C@@H]3CCC(=O)[C@@]3(C)CC[C@@H]2[C@@]2(C)CC/C(=N\O[C@H]3CCN(C)C3)C[C@]12O [I-by, (E) 3-[3′(S)-(1-Methyl)-pyrrolidinyl]oxyimino)-5α-hydroxy-6-(E)-methoxyiminoandrostane-17-one fumarate]",IC50,[1]; [2],12 µM
"C[C@]12CC[C@H](OC(=O)C3CCNCC3)CC1C(=O)C[C@@H]1[C@@H]2CC[C@]2(C)C(=O)CC[C@@H]12 (stereo partly drawn) [I-cw, 3β-(4-Piperidinylcarbonyloxy)androstane-6,17-dione hydrochloride]",IC50,"[1]; Na+, K+-ATPase Inhibition IC50",11 µM
"C[C@]12CC/C(=N\OC3CCNCC3)CC1C(=O)C[C@@H]1[C@@H]2CC[C@]2(C)C(=O)CC[C@@H]12 (some centres unmarked) [I-aa, (E) 3-(4-Piperidyl)oxyiminoandrostane-6,17-dione hydrochloride]",IC50,"[1]; Na+, K+-ATPase Inhibition IC50",4.1 µM
"COC1CC2CC(=NOC3CCNC3)CCC2(C)C2CCC3(C)C(=O)CCC3C12 (mixture of isomers) [I-dn, (E,Z) 3-[3-(R)-Pyrrolidinyl]oxyimino-7α-methoxyandrostane-17-one fumarate]",IC50,[1]; [2],5.9 µM
"CC12CCC3C(C(O)C(CO)C4CC(=NOC5CCNC5)CCC43C)C1CCC2=O (single isomer, unassigned) [I-dl, hydrochloride]",IC50,"[1]; Na+, K+-ATPase Inhibition IC50",0.17 µM
"(E) 3-[3-(R)-Pyrrolidinyl]oxyiminoandrostane-6,7-dione hydrochloride [I-af]",IC50,[1]; [3],0.016 µM
"CC12CCC3C(C(=O)CC4CC(=NOC5CCNC5)CCC43C)C1CCC2=O (single isomer, unassigned) [I-cb]",IC50,"[1]; Na+, K+-ATPase Inhibition IC50",0.089 µM
"CC12CCC3C(CC(=O)C4CC(=NOC5CCCNC5)CCC43C)C1CCC2=O (mixture of isomers) [I-aj, (E) 3-[3′-(R,S)-Piperidinyl]oxyiminoandrostane-6,7-dione hydrochloride]",IC50,"[1]; Na+, K+-ATPase Inhibition IC50",33 µM
"CC1CC2CC(=NOC3CCNC3)CCC2(C)C2CCC3(C)C(=O)CCC3C12 [I-cn, (Z) 3-[3′-(R)-Pyrrolidinyl]oxyimino-7β-methylandrostane-17-one hydrochloride]",IC50,"[1]; Na+, K+-ATPase Inhibition IC50",0.34 µM
"COCC1CC2CC(=NOC3CCNC3)CCC2(C)C2CCC3(C)C(=O)CCC3C12 (mixture of isomers) [I-dm, (E,Z) 3-[3-(R)-Pyrrolidinyl]oxyimino-7α-methoxymethylandrostane-17-one hydrochloride]",IC50,[1]; [2],8.1 µM
"CC12CCC3C(C(=O)CC4CC(=NOC5CCNC5)CCC43C)C1CCC2=O (single isomer, unassigned) [I-cc]",IC50,"[1]; Na+, K+-ATPase Inhibition IC50",0.57 µM
"C[C@]12CC/C(=N\O[C@H]3CCNC3)CC1[C@@H](CO)C(=O)[C@@H]1[C@@H]2CC[C@]2(C)C(=O)CC[C@@H]12 (stereo partly drawn) [I-dj, (E)-3-[3-(S)-Pyrrolidinyl)oxyimino]-6α-hydroxymethylandrostane-7,17-dione fumarate]",IC50,"[1]; Na+, K+-ATPase Inhibition IC50, dog kidney enzyme, hydrolysis of 32P-ATP in presence and absence of compound",0.036 µM
"CC12CCC3C(CC(O)C4CC(=NOC5CCNC5)CCC43C)C1CCC2=O (single isomer, unassigned) [I-ao, hydrochloride]",IC50,"[1]; Na+, K+-ATPase Inhibition IC50",2.3 µM
"CC12CCC3C(CC(CO)C4CC(=NOC5CCNC5)CCC43C)C1CCC2=O (mixture of isomers) [I-ar, (E,Z) 3-[3-(R)-Pyrrolidinyl]oxyimino-6α-hydroxymethylandrostan-17-one hydrochloride]",IC50,[1]; [2],0.026 µM
"CC12CCC3C(CC(=NO)C4CC(=NOC5CCNC5)CCC43C)C1CCC2=O (mixture of isomers) [I-av, (E,Z) 3-[3-(R)-Pyrrolidinyl]oxyimino-6(E)-hydroxyiminoandrostan-17-one hydrochloride]",Emax,anesthetized guinea-pig; [4],144%
same,ED80,anesthetized guinea-pig; [4],1.49 µmol/kg
same,ED (max),anesthetized guinea-pig; [4],4.3 µmol/kg
same,% decrease from Emax after 20 min from the end of the infusion,anesthetized guinea-pig; anesthetized guinea-pig,100%
same,Dead/treated,anesthetized guinea-pig; [4],0/3
same,Maximum dose infused,anesthetized guinea-pig; [5],6.3
"C[C@]12CCC(=NO[C@H]3CCNC3)C=C1/C(=N/O)C[C@@H]1[C@@H]2CC[C@]2(C)C(=O)CC[C@@H]12 [I-dv, (E,Z) 3-[3-(S)-Pyrrolidinyl]oxyimino-6-(E)-hydroxyiminoandrost-4-ene-17-one fumarate]",IC50,[1]; [3],0.22 µM
"CC12CCC3C(CC(=O)C4CC(=NOCC5CCCN5)CCC43C)C1CCC2=O (mixture of isomers) [I-ah, hydrochloride]",IC50,"[1]; Na+, K+-ATPase Inhibition IC50",23 µM
"CO/N=C1\C[C@H]2[C@@H]3CCC(=O)[C@@]3(C)CC[C@@H]2[C@@]2(C)CC/C(=N/O[C@@H]3CCN(C)C3)C[C@]12O [I-bz, (Z) 3-[3′-(R)-(1-Methyl)pyrrolidinyl]oxyimino)-5α-hydroxy-6-(E)-methoxyiminoandrostane-17-one fumarate]",IC50,[1]; [2],94 µM
"C=C1C[C@H]2[C@@H]3CCC(=O)[C@@]3(C)CC[C@@H]2[C@@]2(C)CC/C(=N/O[C@H]3CCNC3)C[C@]12O [I-bi, (Z) 3-[3′-(S)-Pyrrolidinyl]oxyimino-5α-hydroxy-6-methyleneandrostane-17-one fumarate]",IC50,"[1]; Na+, K+-ATPase Inhibition IC50",6 µM
"CC12CCC3C(C(CO)CC4CC(=NOC5CCNC5)CCC43C)C1CCC2=O (mixture of isomers) [I-ch, (E,Z) 3-[3′-(R)-Pyrrolidinyl]oxyimino-7α-hydroxymethylandrostane-17-one hydrochloride]",IC50,[1]; [2],0.16 µM
"3β-(2(R,S)-Morpholinylcarbonyloxy)androstane-6,7-dione fumarate [I-cz]",IC50,[1]; [3],12 µM
"C[C@]12CC/C(=N/O[C@H]3CCNC3)CC1[C@@H](CO)C(=O)[C@@H]1[C@@H]2CC[C@]2(C)C(=O)CC[C@@H]12 (stereo partly drawn) [I-di, (Z)-3-[3-(S)-Pyrrolidinyl)oxyimino]-6α-hydroxymethylandrostane-7,17-dione fumarate]",IC50,"[1]; Na+, K+-ATPase Inhibition IC50",0.21 µM
"CO/N=C1\C[C@H]2[C@@H]3CCC(=O)[C@@]3(C)CC[C@@H]2[C@@]2(C)CC/C(=N/O[C@H]3CCN(C)C3)C[C@]12O [I-bx, (Z) 3-[3′-(S)-(1-Methyl)pyrrolidinyl]oxyimino)-5α-hydroxy-6-(E)-methoxyiminoandrostane-17-one fumarate]",IC50,[1]; [2],96 µM
"CC12CCC3C(CC(=O)C4CC(=NOC5CCNC5)CCC43C)C1CCC2=O (single isomer, unassigned) [I-ag, hydrochloride]",IC50,"[1]; Na+, K+-ATPase Inhibition IC50",0.11 µM
CC12CCC3C(CC(=O)C4CC(=NOC5CNC5)CCC43C)C1CCC2=O (mixture of isomers) [I-ab],IC50,"[1]; Na+, K+-ATPase Inhibition IC50",0.26 µM
"C[C@H]1O[C@@H](O[C@H]2[C@@H](O)C[C@H](O[C@H]3[C@@H](O)C[C@H](O[C@H]4CC[C@@]5(C)[C@H](CC[C@@H]6[C@@H]5C[C@@H](O)[C@]5(C)[C@@H](C7=CC(=O)OC7)CC[C@]65O)C4)O[C@@H]3C)O[C@@H]2C)C[C@H](O)[C@@H]1O [digoxin, reference compound]",Emax,anesthetized guinea-pig; [4],158%
same,ED80,anesthetized guinea-pig; [4],0.29 µmol/kg
same,ED (max),anesthetized guinea-pig; [4],0.65 µmol/kg
same,% decrease from Emax after 20 min from the end of the infusion,anesthetized guinea-pig; anesthetized guinea-pig,100%
same,Maximum dose infused,anesthetized guinea-pig; [5],1.16
"CC12CCC3C(C1CCC2=O)C1(CC1)CC1CC(=NOC2CCNC2)CCC13C (mixture of isomers) [I-co, (Z,E) 3-(3′-(R)-Pyrrolidinyloxyimino)-7-(spirocyclopropane)androstane-17-one hydrochloride]",IC50,"[1]; Na+, K+-ATPase Inhibition IC50",0.024 µM
"C=C1C[C@H]2[C@@H]3CCC(=O)[C@@]3(C)CC[C@@H]2[C@@]2(C)CC/C(=N\O[C@H]3CCNC3)C[C@]12O [I-bj, (E) 3-[3′-(S)-Pyrrolidinyl]oxyimino-5α-hydroxy-6-methyleneandrostane-17-one fumarate]",IC50,"[1]; Na+, K+-ATPase Inhibition IC50",0.48 µM
"C=CCON=C1CC2CC(=NOC3CCNC3)CCC2(C)C2CCC3(C)C(=O)CCC3C12 (mixture of isomers) [I-cf, (E,Z) 3-[3′-(R)-Pyrrolidinyl]oxyimino-7-(E)-allyloxyiminoandrostane-17-one fumarate]",IC50,[1]; [2],4 µM
"3β-(3-(R,S)-Piperidinylcarbonyloxy)androstane-6,7-dione hydrochloride [I-cv]",IC50,[1]; [3],92 µM
"CC12CCC3C(CC(=O)C4CC(OC(=O)C5CCNC5)CCC43C)C1CCC2=O (mixture of isomers) [I-cy, 3β-(3(R,S)-Pirrolidinylcarbonyloxy)androstane-6,17-dione fumarate]",IC50,"[1]; Na+, K+-ATPase Inhibition IC50",4.2 µM
"C[C@]12CC[C@H]3[C@@H](C/C(=N\O)[C@@]4(O)CC(=NO[C@H]5CCNC5)CC[C@]34C)[C@@H]1CCC2=O (mixture of isomers) [I-bq, (E,Z) 3-[3-(S)-Pyrrolidinyl]oxyimino-5α-hydroxy-6-(E)-hydroxyiminoandrostane-17-one hydrochloride]",Emax,anesthetized guinea-pig; [4],380%
same,ED80,anesthetized guinea-pig; [4],0.59 µmol/kg
same,ED (max),anesthetized guinea-pig; [4],3.72 µmol/kg
same,Maximum dose infused,anesthetized guinea-pig; [5],18.7
